# Test results published in patent US10286092B2, “Detecting a therapeutic cell” (UCL Business PLC, priority 2015, dated 2019).
# Positions count from the first letter of the chain named. Numbers in names are those of the source. Where “and” joins values, the source holds several entries; their conditions need not be identical. Equal entries are not always repeated. Entries after “also recorded” stand apart in the source; their conditions may differ.
# B1: dhDATopt: truncated hDAT, probably lacking the 49 N-terminal amino acids compared to wild-type hDAT (protein)
# chain: MSKSKCSVGLMSSVVAPAKEPNAVGPKEVELILVKEQNGVQLTSSTLTNPRQSPVEAQDRETWGKKIDFLLSVIGFAVDLANVWRFPYLCYKNGGGAFLVPYLLFMVIAGMPLFYMELALGQFNREGAAGVWKICPILKGVGFTVILISLYVGFFYNVIIAWALHYLFSSFTTELPWIHCNNSWNSPNCSDAHPGDSSGDSSGLNDTFGTTPAAEYFERGVLHLHQSHGIDDLGPPRWQLTACLVLVIVLLYFSLWKGVKTSGKVVWITATMPYVVLTALLLRGVTLPGAIDGIRAYLSVDFYRLCEASVWIDAATQVCFSLGVGFGVLIAFSSYNKFTNNCYRDAIVTTSINSLTSFSSGFVVFSFLGYMAQKHSVPIGDVAKDGPGLIFIIYPEAIATLPLSSAWAVVFFIMLLTLGIDSAMGGMESVITGLIDEFQLLHRHRELFTLFIVLATFLLSLFCVTNGGIYVFTLLDHFAAGTSILFGVLIEAIGVAWFYGVGQFSDDIQQMTGQRPSLYWRLCWKLVSPCFLLFVVVVSIVTFRPPHYGAYIFPDWANALGWVIATSSMAMVPIYAAYKFCSLPGSFREKLAYAIAPEKDRE
# modifications: dhDATopt_d protein sequence
# notes: truncated hDAT, probably lacking the 49 N-terminal amino acids compared to wild-type hDAT
# B2: hDAToptD313N: hDAT including a D313N mutation (protein, UniProt Q01959 1-620, looked up, variant D313N)
# Sodium-dependent dopamine …: MSKSKCSVGLMSSVVAPAKEPNAVGPKEVELILVKEQNGVQLTSSTLTNPRQSPVEAQDRETWGKKIDFLLSVIGFAVDLANVWRFPYLCYKNGGGAFLVPYLLFMVIAGMPLFYMELALGQFNREGAAGVWKICPILKGVGFTVILISLYVGFFYNVIIAWALHYLFSSFTTELPWIHCNNSWNSPNCSDAHPGDSSGDSSGLNDTFGTTPAAEYFERGVLHLHQSHGIDDLGPPRWQLTACLVLVIVLLYFSLWKGVKTSGKVVWITATMPYVVLTALLLRGVTLPGAIDGIRAYLSVDFYRLCEASVWINAATQVCFSLGVGFGVLIAFSSYNKFTNNCYRDAIVTTSINSLTSFSSGFVVFSFLGYMAQKHSVPIGDVAKDGPGLIFIIYPEAIATLPLSSAWAVVFFIMLLTLGIDSAMGGMESVITGLIDEFQLLHRHRELFTLFIVLATFLLSLFCVTNGGIYVFTLLDHFAAGTSILFGVLIEAIGVAWFYGVGQFSDDIQQMTGQRPSLYWRLCWKLVSPCFLLFVVVVSIVTFRPPHYGAYIFPDWANALGWVIATSSMAMVPIYAAYKFCSLPGSFREKLAYAIAPEKDRELVDRGEVRQFTLRHWLKV
# B3: hDAT: human dopamine transporter expressed from tricistronic construct RQR8.2A.aCD19.2A.hDAT_opt (protein)
# chain: B2 Sodium-dependent dopamine … with N313D
# modifications: hDAT protein sequence
# How the values were obtained:
# [1] = Binding of 123I-FP-CIT by hDAT and hDAT variant proteins from different constructs; conditions: for binding of [123I]-FP-CIT by hDAT variant: compared to wild-type hDAT, FIG. 7
# Method: (§1) Reporter protein binding capabilities was assessed in a method previously described. Briefly, 1×10^6 all hDAT expressing T-cells and the non-transduced control cells were incubated at 37° C. with 7.4 kBq ^123I-FP-CIT (GE, Healthcare) for 30 mins. At each time point, cells were rapidly washed twice with 500 μL ice-cold PBS and the supernatant collected. Cell pellets were re-suspended in 1 mL PBS. ^123I-FP-CIT binding in cells and medium was measured using a gamma counter (WIZARD^2, PerkinElmer, UK). To determine the non-specific binding of the ^123I-FP-CIT in hDAT (+) cells, transduced cells and non-transduced cells were incubated with 50 μM of β-CIT-FP (ABX) for 5 min. ^123I-FP-CIT cells were subsequently prepared for gamma counting as mentioned above. All experiments were performed in triplicates and repeated ≥twice. All results are given as mean±standard deviation of the mean (SD). The data was analysed using one way analysis of variance (ANOVA) followed by the Tukey's HSD test with the IBM SPSS software.
# [2] = target: T1, hDAT (Homo sapiens, UniProt Q01959); experiment: In vitro radiosubstrate binding assay, hDAT expressing T-cells
# T1 construct: expressed in transfected cells; host or cells: SupT1 human T-cell line, retrovirally transduced with SFG.hDAT.I.CD34 (co-transduced with FLuc for in vivo work)
# Method: as §1
# [3] = target: T1, hDAT; experiment: SPECT/CT imaging of hDAT-positive brain xenografts in NSG mice; format: in vivo; conditions: for specific to non-specific binding ratio hDAT: cerebellum: NSG mice n=4
# Method: All animal procedures were carried out in accordance with the UK Animals (Scientific Procedures) 1986 Act and institutional ethics regulation. NSG mice were bred in-house and kept according to institutional guidelines. Male mice 6-10 weeks old were injected with 2 mg/kg body weight of 5% carprofen (Norbrook) and anaesthetised with 3-5% Isoflurane (ABBOTT, UK) in an induction chamber. Animals were placed in a stereotactic frame (David Kopf Instruments) with an anaesthesia head holder to deliver 3% isoflurane. A sagittal incision over the parieto-occipital bone using a sterile scalpel (Swann Morton Ltd) was made and a blunt ended Hamilton (75N, 26s/2″/2′5 ul) syringe with SupT1/hDAT.I.CD34 was placed 1.5 mm lateral and 1 mm anterior of bregma. The needle was lowered 4 mm in the brain through a burr hole and retracted 1 mm to create a small reservoir where the cells (1×10^4 in a 3 μl volume) were injected.
# (§2) Animals were administered with 1.5 mmol/kg of the thyroid blocking agent potassium perchlorate (Sigma Aldrich, USA) intraperitoneally one hour prior to imaging. Animals were imaged with a NanoSPECT/CT small animal in vivo scanner (Mediso, Hungary) consisting of a rotating double headed camera (company, country). 1.2 mm pinhole mouse apertures were used. Imaging was performed under isoflurane (1.5-2%) and the body temperature was maintained at 37° C. using a heated animal bed (Minerve, France). For the kinetic study, animals were administered with an average of 17.25±1.22 MBq of ^123I-FP-CIT i.v. and 15 min. brain scans were acquired day 25 post tumour inoculation at 15 min. 2 h, 4 h, 6 h and 8 h. Images were reconstructed using HiSPECT software (InviCRO, USA) and image processing analysis was performed (VivoQuant Software; InviCRO, USA).
# Time activity profiles were generated evaluate the hDAT reporter system in vivo. Regions of interest (ROIs) for the hDAT expressing xenografts, cerebellum (chose background region) and striatum were drawn on the SPECT/MR/CT coregistered data. The percentage in injected dose per mm^3 (% ID/mm^3) was calculated by; injected dose (MBq)/counts in the whole body (MBq)/volume of the ROI (mm^3) to determine the peak uptake time and the optimum imaging window. A method based on the striatal binding ratio was utilised to determine specific-to-nondisplaceable binding ratios previously described as indicative of the binding potential at the time of binding equilibrium^6,7. The binding ratios were calculated by determining the mean counts per pixel in the specific region (hDAT expressing xenograft for the hDAT: cerebellum and hDAT: striatum ratios) divided by the mean counts per pixel in the nonspecific region.
# [4] = test system: non-transduced SupT1 cells; experiment: SPECT imaging of control animals injected with non-transduced SupT1 cells; format: in vivo, mouse; conditions: intracranially injected non-transduced SupT1 cells
# Method: as §2
# [5] = test system: control non-transduced (NT) SupT1 cells; experiment: In vitro radiosubstrate binding assay, non-transduced control cells; parameters: species or system human; conditions: 7.4 kBq, 37° C., 30 min
# Method: as §1
# [6] = target: T2, DAT (Mus musculus, UniProt Q61327); experiment: SPECT/CT imaging of striatum (endogenous DAT) in NSG mice; format: in vivo; conditions: NSG mice n=4
# T2 construct: the striatum (region with high endogenous expression of DAT); from tissue; host or cells: striatum of living NSG mice (in vivo SPECT)
# Method: as §2
# Time activity profiles were generated evaluate the hDAT reporter system in vivo. […] The percentage in injected dose per mm^3 (% ID/mm^3) was calculated by; injected dose (MBq)/counts in the whole body (MBq)/volume of the ROI (mm^3) to determine the peak uptake time and the optimum imaging window. […] The binding ratios were calculated by determining the mean counts per pixel in the specific region (hDAT expressing xenograft for the hDAT: cerebellum and hDAT: striatum ratios) divided by the mean counts per pixel in the nonspecific region.
# [7] = target: T1, hDAT; experiment: PET/CT imaging of hDAT positive cells in mouse brain; format: in vivo; conditions: i.v.
# Method: Animals were administered with 1.5 mmol/kg of the thyroid blocking agent potassium perchlorate (Sigma Aldrich, USA) intraperitoneally one hour prior to imaging. Animals were imaged with a PET/CT small animal in vivo scanner (Mediso, Hungary). Imaging was performed under isoflurane (1.5-2%) and the body temperature was maintained at 37° C. using a heated animal bed (Minerve, France). Four weeks post tumour inoculation, animals were administered with 5 MBq of ^18F-FP-CIT i.v. and brain scans were acquired 30 min post injection. A high-resolution CT was acquired immediately following […] imaging. Images were reconstructed using HiSPECT software (InviCRO, USA) and image processing analysis was performed (VivoQuant Software; InviCRO, USA).
# [8] = after 4 h post i.v. injection (constant)
# T1 sequence (Q01959 whole entry): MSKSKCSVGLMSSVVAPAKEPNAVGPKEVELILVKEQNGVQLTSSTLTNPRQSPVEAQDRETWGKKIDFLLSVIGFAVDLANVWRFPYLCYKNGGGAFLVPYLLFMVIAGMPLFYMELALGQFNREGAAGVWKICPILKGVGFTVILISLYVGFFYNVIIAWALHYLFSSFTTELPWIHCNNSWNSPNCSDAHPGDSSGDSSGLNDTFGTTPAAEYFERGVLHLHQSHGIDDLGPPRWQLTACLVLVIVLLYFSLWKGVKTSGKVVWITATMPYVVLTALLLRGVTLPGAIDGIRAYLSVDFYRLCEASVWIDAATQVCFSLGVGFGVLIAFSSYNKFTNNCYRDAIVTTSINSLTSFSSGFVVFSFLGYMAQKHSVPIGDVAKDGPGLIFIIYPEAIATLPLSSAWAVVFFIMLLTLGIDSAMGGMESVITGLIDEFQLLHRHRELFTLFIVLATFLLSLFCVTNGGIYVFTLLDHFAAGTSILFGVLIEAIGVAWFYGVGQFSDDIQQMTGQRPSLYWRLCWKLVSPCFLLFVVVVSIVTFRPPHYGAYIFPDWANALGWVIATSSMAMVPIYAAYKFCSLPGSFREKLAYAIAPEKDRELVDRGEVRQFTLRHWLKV
# T2 sequence (Q61327 whole entry): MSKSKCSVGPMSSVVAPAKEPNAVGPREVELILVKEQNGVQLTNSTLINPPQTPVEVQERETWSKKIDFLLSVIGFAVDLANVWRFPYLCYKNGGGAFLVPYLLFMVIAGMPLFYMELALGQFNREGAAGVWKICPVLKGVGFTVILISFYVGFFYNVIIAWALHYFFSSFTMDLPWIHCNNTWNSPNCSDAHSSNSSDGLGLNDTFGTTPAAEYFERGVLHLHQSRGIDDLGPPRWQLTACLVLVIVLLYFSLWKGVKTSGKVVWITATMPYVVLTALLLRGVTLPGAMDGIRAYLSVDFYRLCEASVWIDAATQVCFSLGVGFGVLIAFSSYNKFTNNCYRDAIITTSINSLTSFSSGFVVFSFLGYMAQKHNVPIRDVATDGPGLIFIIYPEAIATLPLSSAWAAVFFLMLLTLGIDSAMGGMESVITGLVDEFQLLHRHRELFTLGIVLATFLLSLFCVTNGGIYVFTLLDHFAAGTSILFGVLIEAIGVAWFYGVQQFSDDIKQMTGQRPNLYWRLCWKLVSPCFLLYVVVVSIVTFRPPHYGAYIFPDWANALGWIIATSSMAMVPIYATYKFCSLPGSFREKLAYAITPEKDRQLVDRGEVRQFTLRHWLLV
molecule,measurement,setting,value
RQR8-hDAT: hDAT tagged with RQR8,binding of [123I]-FP-CIT by hDAT variant,[1],increased levels
COC(=O)[C@H]1[C@@H](c2ccc(I)cc2)C[C@@H]2CC[C@H]1N2CCCF [[I]-FP-CIT],% [123I]-FP-CIT binding in the presence of [I]-FP-CIT,"[2]; SupT1/SFG.hDAT.I.CD34 cells co-incubated with cold compound, 50 μM",1.10±0.22%
same,fold reduction of [123I]-FP-CIT binding in the presence of [I]-FP-CIT,"[2]; SupT1/SFG.hDAT.I.CD34 cells, cold compound 50 μM, p<0.001",32 fold
same,inhibition of [123I]-FP-CIT binding by cold compound (in words),"[2]; hDAT positive T-cells, co-incubation with cold compound 50 μM",complete binding inhibition; also recorded: completely abolished
"COC(=O)[C@H]1[C@@H](c2ccc(I)cc2)C[C@@H]2CC[C@H]1N2CCCF [[^123I]-FP-CIT, [I-^123] N-ω-fluoropropyl-2β-carbomethoxy-3β-(4-iodophenyl) nortropane]",percentage [123I]-FP-CIT binding,"[2]; SupT1/SFG.hDAT.I.CD34 cells, 7.4 kBq, 37° C., 30 min",35.10±5.24%
same,fold greater % [123I]-FP-CIT binding in SupT1/SFG.hDAT.I.CD34 compared to control cells,[2]; hDAT cells vs non-transduced SupT1 cells,25 fold and 27 fold
same,specific to non-specific binding ratio hDAT: cerebellum,[3]; 2 h post i.v. injection (peak),5.73±1.75
same,optimum imaging time post injection,"[3]; SupT1/SFG.hDAT.I.CD34 xenografts, SPECT",2 h
same,specific to non-specific binding ratio hDAT: cerebellum,[3]; [8],4.09±0.38
same,co-localisation of SPECT signal with MR contrast at xenograft site,"[3]; co-registered SPECT-MR-CT, 2 h post i.v. injection",good co-localisation; also recorded: good correlation
same,time post radiotracer injection at which hDAT-positive xenografts were visualised by SPECT,"[3]; dynamic SPECT at 15 min, 2 h, 4 h, 6 h",as early as 15 min and up to 6 hr
same,SPECT signal in control animals,[4],non-detectable
same,percentage [123I]-FP-CIT binding,[5],1.41±0.40%
same,specific to non-specific binding ratio striatum: cerebellum,[6]; 2 h post i.v. injection (peak),6.56±2.40
same,specific to non-specific binding ratio striatum: cerebellum,[6]; [8],4.08±0.60
"COC(=O)[C@H]1[C@@H](c2ccc(I)cc2)C[C@@H]2CC[C@H]1N2CCC[18F] [^18F-FP-CIT, [^18F] fluoropropyl-carbomethoxy-iodophenyl-nortropane]",detection of hDAT positive cells by PET/CT,[7],could also be detected
B1,binding of [123I]-FP-CIT by hDAT variant,[1],able to bind
B2,binding of [123I]-FP-CIT by hDAT variant,[1],increased levels
B3,binding of [123I]-FP-CIT by hDAT co-expressed with CD19 CAR,"[1]; hDAT expressed from CD19 CAR-hDAT tricistronic construct, FIG. 8C",able to bind
